This note sets out measurements from ChEMBL document CHEMBL1126333, “Conversion of NSAIDS into balanced dual inhibitors of cyclooxygenase and 5-lipoxygenase” (Bioorg Med Chem Lett, 1992).

One assay concerns the target T1, Cyclooxygenase (Rattus norvegicus, UniProt P35355+Q63921).
T1 sequence (P35355 whole entry): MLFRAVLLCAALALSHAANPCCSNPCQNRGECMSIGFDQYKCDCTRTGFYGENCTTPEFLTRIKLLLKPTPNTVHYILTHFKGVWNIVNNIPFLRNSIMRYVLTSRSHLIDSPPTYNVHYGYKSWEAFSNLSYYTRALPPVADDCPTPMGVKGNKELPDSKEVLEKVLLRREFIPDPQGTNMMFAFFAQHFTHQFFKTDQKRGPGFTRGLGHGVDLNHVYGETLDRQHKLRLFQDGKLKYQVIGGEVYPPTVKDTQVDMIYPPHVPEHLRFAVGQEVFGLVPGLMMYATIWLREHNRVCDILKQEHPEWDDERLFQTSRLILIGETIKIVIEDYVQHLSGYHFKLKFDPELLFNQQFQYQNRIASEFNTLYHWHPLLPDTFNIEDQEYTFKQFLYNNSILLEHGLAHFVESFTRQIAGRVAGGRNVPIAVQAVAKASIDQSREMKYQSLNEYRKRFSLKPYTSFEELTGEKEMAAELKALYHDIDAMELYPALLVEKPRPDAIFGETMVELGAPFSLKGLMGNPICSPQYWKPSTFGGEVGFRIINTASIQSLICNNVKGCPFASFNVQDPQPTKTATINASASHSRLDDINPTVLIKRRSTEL
T1 sequence (Q63921 whole entry): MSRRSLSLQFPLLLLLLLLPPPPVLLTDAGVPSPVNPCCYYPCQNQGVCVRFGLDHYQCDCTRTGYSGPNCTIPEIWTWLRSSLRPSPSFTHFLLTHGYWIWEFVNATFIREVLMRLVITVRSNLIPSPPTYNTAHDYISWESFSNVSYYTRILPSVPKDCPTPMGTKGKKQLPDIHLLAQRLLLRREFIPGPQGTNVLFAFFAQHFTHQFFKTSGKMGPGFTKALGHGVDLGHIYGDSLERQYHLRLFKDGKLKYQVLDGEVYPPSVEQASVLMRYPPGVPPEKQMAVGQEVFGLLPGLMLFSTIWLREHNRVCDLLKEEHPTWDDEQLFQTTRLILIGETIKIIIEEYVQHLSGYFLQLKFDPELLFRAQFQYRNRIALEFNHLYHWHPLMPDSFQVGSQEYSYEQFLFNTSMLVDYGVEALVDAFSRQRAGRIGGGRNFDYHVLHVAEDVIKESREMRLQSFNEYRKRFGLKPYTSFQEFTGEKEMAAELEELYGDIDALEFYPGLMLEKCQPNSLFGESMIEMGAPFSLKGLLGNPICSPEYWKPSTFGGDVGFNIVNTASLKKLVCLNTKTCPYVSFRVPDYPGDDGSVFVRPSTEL
Description: In vitro inhibitory activity against Cyclooxygenase was determined. Format: protein assay.

The target of assay [1] is T2, Polyunsaturated fatty acid 5-lipoxygenase (Rattus norvegicus) (UniProt P12527).
T2 sequence (whole entry): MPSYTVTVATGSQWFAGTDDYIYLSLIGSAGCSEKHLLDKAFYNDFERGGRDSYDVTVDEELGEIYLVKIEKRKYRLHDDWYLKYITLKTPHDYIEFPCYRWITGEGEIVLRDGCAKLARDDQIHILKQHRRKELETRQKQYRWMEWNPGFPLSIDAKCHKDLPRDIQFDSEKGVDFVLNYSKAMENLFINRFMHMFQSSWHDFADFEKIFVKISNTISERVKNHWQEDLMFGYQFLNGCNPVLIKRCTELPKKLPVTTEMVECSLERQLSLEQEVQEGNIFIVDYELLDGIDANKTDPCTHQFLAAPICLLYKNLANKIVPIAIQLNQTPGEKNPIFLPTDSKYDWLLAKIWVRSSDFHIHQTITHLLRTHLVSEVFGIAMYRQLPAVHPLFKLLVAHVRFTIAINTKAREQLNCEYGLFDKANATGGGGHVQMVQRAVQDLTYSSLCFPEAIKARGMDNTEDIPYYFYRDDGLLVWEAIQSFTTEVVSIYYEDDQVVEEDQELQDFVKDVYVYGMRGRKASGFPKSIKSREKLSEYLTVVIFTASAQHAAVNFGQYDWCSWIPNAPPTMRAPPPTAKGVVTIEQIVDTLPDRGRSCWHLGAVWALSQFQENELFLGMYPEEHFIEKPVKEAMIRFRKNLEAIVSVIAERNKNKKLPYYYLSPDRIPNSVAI
In words: In vitro inhibitory activity against 5-lipoxygenase was determined at 16 uM.

The target in assay [2] is Cyclooxygenase (Rattus norvegicus) (UniProt P35355+Q63921). In words: In vitro inhibitory activity against Cyclooxygenase was determined at 16 uM. Format: protein assay.
In assay [3] the target is T3, Polyunsaturated fatty acid 5-lipoxygenase (Rattus norvegicus, UniProt P12527).
T3 sequence (P12527 whole entry): T2 sequence (whole entry)
In words: In vitro inhibitory activity against 5-lipoxygenase was determined.

Structures are written as SMILES.

Broadly, the IC50 is the concentration that inhibits the measured activity by half. Read a high IC50 as weaker potency. Regarding `FC(F)(F)c1cccc(Nc2ccccc2-c2n[nH]c(=S)o2)c1`, the IC50 against Cyclooxygenase was 270 nM.
On the same count and under the same terms, the value for `Cc1ccc(Cl)c(Nc2ccccc2-c2nnc(S)s2)c1Cl` was 1750 nM; that for `FC(F)(F)c1cccc(Nc2ccccc2-c2n[nH]c(=S)s2)c1` was 850 nM.
One may read the inhibition as the drop in the measured response relative to a control, in per cent. The low end stands for little suppression, the high end for strong suppression. With `Oc1nnc(-c2ccccc2Nc2cccc(C(F)(F)F)c2)s1`, the inhibition is 100% in assay [1] and < 40% in assay [2].
For the compound `Cc1cccc(Nc2ccccc2-c2nnc(O)o2)c1C`, the inhibition in assay [1] and in assay [2] was < 40% each time.
Turning to `FC(F)(F)c1cccc(Nc2ncccc2-c2nnc(S)o2)c1`, the IC50 in assay [3] came out at 990 nM; against Cyclooxygenase it was 190 nM.
As to `Cc1ccc(Cl)c(Nc2ccccc2-c2nnc(O)o2)c1Cl`, the inhibition in assay [1] and in assay [2] was < 40% each time.
Turning to `Cc1ccc(Cl)c(Nc2ccccc2-c2nnc(S)o2)c1Cl`, the IC50 on Cyclooxygenase was 700 nM.
